In patent US9745297B2, “Compounds as modulators of RORC” (Boehringer Ingelheim International GmbH, priority 2013, dated 2017) one finds IC50 data, which are given here for 57 molecules.

A value given as a limit tells only on which side of the number the result lay.

This assay concerns the target T1, RORγt (Homo sapiens, UniProt P51449).
T1 construct: expressed in transfected cells
T1 sequence (P51449 269-508 limits assumed): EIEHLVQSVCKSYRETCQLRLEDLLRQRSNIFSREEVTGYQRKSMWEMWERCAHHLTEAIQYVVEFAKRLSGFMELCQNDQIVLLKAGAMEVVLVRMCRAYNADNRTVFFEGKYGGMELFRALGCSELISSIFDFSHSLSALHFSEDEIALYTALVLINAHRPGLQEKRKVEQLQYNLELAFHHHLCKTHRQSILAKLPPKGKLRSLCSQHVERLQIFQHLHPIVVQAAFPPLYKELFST
The assay is described as follows: RGA Assay: nuclear receptor transactivation assay, RORγt transactivation of a luciferase reporter. It is filed as cell-based. The settings on record: transiently transfected HEK 293 cells (pGL4.3 luc2P/GAL4UAS, pBIND Gal4DBD hRORC LBD), 20-24 hours incubation, luciferase readout. As for the experimental part:
A nuclear receptor transactivation assay was performed to quantitate the ability of test compounds to inhibit RORγt transactivation of a luciferase reporter. A similar assay is described in: Khan et al., Bioorganic & Medicinal Chemistry Letters 23 (2013), 532-536. The system uses transiently transfected HEK 293 cells cotransfected with two plasmids (pGL4.3, luc2P/GAL4UAS/Hygro, and pBIND, Ga14DBD hRORC LBD1-3). The positive control is co-transiently transfected with both plasmids, and the negative control contains the pGL4.3 promoter sequence. Assays were assembled in 384 well plates where transiently transfected cells and test compound at varying concentrations were incubated for 20-24 hours. The next day, assays plates are taken out and equillibrated at RT for 20-30 minutes. Bright-Glo™ Luciferase Assay System is used to detect Luciferase production. After addition of Bright GLO detection reagent, the plates were incubated at RT for 20 minutes. The plates were read on an Envision plate reader to measure luminescence signal. The RLU signal is converted to POC relative to control and blank wells.
Compound Dilution Buffer:
Bright Glo Luciferase Assay System: Promega #E2620
Thaw lysis buffer provided in kit, add 100 mL lysis buffer to substrate powder.
The molecule `CCS(=O)(=O)c1ccc(CNC(=O)N2CC3(CCCC3)c3nc(-c4nnccc4C(F)(F)F)ccc32)cc1` [Example 39] registered an IC50 above 30 µM.
As for `COc1ccc(-c2ccc3c(n2)C2(CCCC2)CN3C(=O)NCc2ccc(S(C)(=O)=O)cc2)c(C(F)(F)F)c1` [Example 52], the figure is 0.93 µM.
As for `CCS(=O)(=O)c1cnc(CNC(=O)N2CC3(CCCC3)c3nc(-c4c(OC)ncnc4C4CC4)ccc32)nc1` [Example 102], the figure is 0.73 µM; as for `Cc1cc(O)ccc1-c1ccc2c(n1)C1(CCCC1)CN2C(=O)NCc1ccc(S(C)(=O)=O)cc1` [Example 54], 1.4 µM.
Next, `CCS(=O)(=O)c1ccc(CNC(=O)N2CC3(CCCC3)c3nc(-c4ccc(O)cc4C(F)(F)F)ccc32)cc1` [Example 11]: 0.11 µM; `CNS(=O)(=O)c1ccc(CNC(=O)N2CC(C)(C)c3nc(-c4cnc(OC)cc4C)ccc32)cc1` [Example 44]: 18 µM; `CCS(=O)(=O)c1ccc(CNC(=O)N2CC3(CCCC3)c3nc(-c4cc(CN5CC[C@H](O)C5)ccc4C4CC4)ccc32)cc1` [Example 83]: 6.9 µM.
In the case of `COC1CCN(c2ccc(-c3ccc4c(n3)C3(CCCC3)CN4C(=O)NCc3ccc(S(C)(=O)=O)cc3)c(C)n2)CC1` [Example 7], the IC50 was above 30 µM.
Next, `Cc1cc(C#N)ccc1-c1cc2c(cn1)N(C(=O)NCc1ccc(S(C)(=O)=O)cc1)CC2(C)C` [Example 92]: above 30 µM; `CCS(=O)(=O)c1ccc(CNC(=O)N2CC(C)(C)c3nc(-c4c(OC)ncnc4C(F)(F)F)ccc32)cc1` [Example 81]: 1.5 µM; `COc1ncnc(C2CC2)c1-c1ccc2c(n1)C(C)(C)CN2C(=O)NCc1ccc(S(C)(=O)=O)cc1` [Example 77]: 4 µM.
On to `CNS(=O)(=O)c1ccc(CNC(=O)N2CC3(CCCC3)c3nc(Oc4cnc(C)cc4C)ccc32)cc1` [Example 61], for which the midpoint of inhibition, the IC50, lay at 7.6 µM.
As for `COc1cc(C)c(-c2ccc3c(n2)C(C)(C)CN3C(=O)NCc2ccc(S(C)(=O)=O)cc2)cn1` [Example 19], the figure is 10 µM; as for `CCS(=O)(=O)c1ccc(CNC(=O)N2CC3(CCCC3)c3nc(-c4c(C5CC5)ncnc4C4CC4)ccc32)nc1` [Example 98], 0.37 µM; as for `CCS(=O)(=O)c1ccc(CNC(=O)N2CC3(CCCC3)c3nc(-c4sc(OC)nc4C)ccc32)cc1` [Example 27], 8 µM.
`CCc1ncnc(C2CC2)c1-c1ccc2c(n1)C1(CCCC1)CN2C(=O)NCc1ccc(S(=O)(=O)CC)cn1` [Example 101] had an IC50 of 0.42 µM.
Next, `CCS(=O)(=O)c1ccc(CNC(=O)N2CC3(CCCC3)c3cc(Cl)ncc32)cc1` [Example 96]: above 30 µM; `CCC1(C)CN(C(=O)NCc2ccc(S(=O)(=O)CC)cc2)c2ccc(-c3c(OC)ncnc3C3CC3)nc21` (stereo not drawn) [Example 73]: 1.5 µM; `CC1(C)CN(C(=O)NCc2ccc(S(C)(=O)=O)cc2)c2ccc(Br)nc21` [Example 16]: above 30 µM.
Next, `CCS(=O)(=O)c1ccc(CNC(=O)N2CC3(CCCC3)c3nc(-c4cncnc4C(F)(F)F)ccc32)cc1` [Example 35]: 2.1 µM; `CCS(=O)(=O)c1ccc(CNC(=O)N2CC3(CCCC3)c3nc(-c4c(C)nn(C)c4C)ccc32)cc1` [Example 36]: 16 µM; `CCS(=O)(=O)c1ccc(CNC(=O)N2CC3(CCCC3)c3nc(-c4cncnc4C(C)C)ccc32)cc1` [Example 25]: 1.2 µM.
Take `Cc1cc(F)ccc1-c1cc2c(cn1)N(C(=O)NCc1ccc(S(C)(=O)=O)cc1)CC2(C)C` [Example 89]: the IC50 is above 30 µM.
As for `CCS(=O)(=O)c1ccc(CNC(=O)N2CC3(CCCC3)c3nc(-c4sc(N)nc4C(F)(F)F)ccc32)cc1` [Example 32], the figure is 17 µM; as for `CC(C)Oc1ncnc(C2CC2)c1-c1ccc2c(n1)C1(CCCC1)CN2C(=O)NCc1ccc(S(C)(=O)=O)cc1` [Example 68], 2.5 µM; as for `COc1ccc(-c2ccc3c(n2)C(C)(C)CN3C(=O)NCc2ccc(C#N)cc2)c(C(F)(F)F)c1` [Example 4], 12 µM.
Next, `CNS(=O)(=O)c1ccc(CNC(=O)N2CC(C)(C)c3nc(Oc4ccc(F)c(OC(F)(F)F)c4)ccc32)cc1` [Example 49]: 4.1 µM; `CNS(=O)(=O)c1ccc(CNC(=O)N2CC3(CCCC3)c3nc(-c4ccc(OC)cc4C(F)(F)F)ccc32)cc1` [Example 51]: 0.71 µM.
Next, `CNS(=O)(=O)c1ccc(CNC(=O)N2CC(C)(C)c3nc(-c4cncnc4C(C)C)ccc32)cc1` [Example 45]: 9.1 µM.
The molecule `CCS(=O)(=O)c1ccc(CNC(=O)N2CC3(CCCC3)c3nc(-c4ccc(OC)cc4C(F)(F)F)ccc32)cc1` [Example 12] came in with an IC50 of 0.48 µM.
As for `CNS(=O)(=O)c1ccc(CNC(=O)N2CC(C)(C)c3nc(-c4ccc(OC)cc4C(F)(F)F)ccc32)cc1` [Example 23], the figure is 1.8 µM.
Next, `CNS(=O)(=O)c1ccc(CNC(=O)N2CC(C)(C)c3nc(Br)ccc32)cc1` [Example 17]: above 30 µM; `COc1cc(C)c(-c2cc3c(cn2)N(C(=O)NCc2ccc(S(C)(=O)=O)cc2)CC3(C)C)cn1` [Example 90]: above 30 µM.
In turn, `Cc1cc(O)ccc1-c1ccc2c(n1)C(C)(C)CN2C(=O)NCc1ccc(S(C)(=O)=O)cc1` [Example 21] registered a half-inhibitory concentration (IC50) of 12 µM.
Turning to `COc1cc(C)c(-c2ccc3c(n2)C(C)(C)CN3C(=O)NCc2ccc(C#N)cc2)cn1` [Example 3], the IC50 was above 30 µM.
As for `Cc1cc(F)ccc1-c1ccc2c(n1)C1(CCCC1)CN2C(=O)NCc1ccc(S(C)(=O)=O)cc1` [Example 50], the figure is 8.6 µM; as for `CNS(=O)(=O)c1ccc(CNC(=O)N2CC3(CCCC3)c3nc(-c4cnc(OC)cc4C)ccc32)cc1` [Example 57], 5.2 µM.
The molecule `CCS(=O)(=O)c1ccc(CNC(=O)N2CC3(CCCC3)c3nc(-c4ccc(C#N)cc4C)ccc32)cc1` [Example 10] displayed an IC50 of 11 µM.
Regarding `CCS(=O)(=O)c1ccc(CNC(=O)N2CC3(CCCC3)c3nc(-c4c(C)n[nH]c4C)ccc32)cc1` [Example 31], the IC50 was above 30 µM.
`CCNC(=O)c1ccc(-c2ccc3c(n2)C2(CCCC2)CN3C(=O)NCc2ccc(S(C)(=O)=O)cc2)c(C)c1` [Example 9] had an IC50 of 4.3 µM.
Consider `CCS(=O)(=O)c1ccc(CNC(=O)N2CC3(CCCC3)c3nc(-c4ccc(F)cc4C)ccc32)cc1` [Example 14], for which the IC50 worked out at 3.4 µM.
In turn, `Cc1nc(N2CCOCC2)ccc1-c1ccc2c(n1)C1(CCCC1)CN2C(=O)NCc1ccc(S(C)(=O)=O)cc1` [Example 5] had an IC50 above 30 µM.
As for `Cc1cc(O)ccc1-c1cc2c(cn1)N(C(=O)NCc1ccc(S(C)(=O)=O)cc1)CC2(C)C` [Example 91], the figure is above 30 µM; as for `CCS(=O)(=O)c1ccc(CNC(=O)N2CC3(CCCC3)c3cc(-c4c(OC)ncnc4C4CC4)ncc32)cc1` [Example 93], 0.74 µM; as for `Cc1cc(O)ccc1-c1ccc2c(n1)C(C)(C)CN2C(=O)NCc1ccc(C#N)cc1` [Example 2], above 30 µM.
In turn, `CCS(=O)(=O)c1ccc(CNC(=O)N2CC3(CCCC3)c3nc(-c4c(OC(C)C)ncnc4C4CC4)ccc32)cc1` [Example 67] showed an IC50 of 0.83 µM.
As to `COc1ncnc(C2CC2)c1-c1ccc2c(n1)C1(CCCC1)CN2C(=O)NCc1ccc(S(C)(=O)=O)cc1` [Example 66], half-maximal inhibition (IC50) was put at 0.65 µM.
As for `COc1ccc(-c2ccc3c(n2)C(C)(C)CN3C(=O)NCc2ccc(S(C)(=O)=O)cc2)c(C(F)(F)F)c1` [Example 18], the figure is 3.4 µM; as for `CCS(=O)(=O)c1ccc(CNC(=O)N2CC3(CCCC3)c3nc(-c4c(OC)ncnc4C4CC4)ccc32)cc1` [Example 26], 0.35 µM; as for `CCS(=O)(=O)N1CCC(CNC(=O)N2CC3(CCCC3)c3nc(-c4c(OC)ncnc4C4CC4)ccc32)CC1` [Example 76], 15 µM.
Next, `Cc1cc(C)c(Oc2ccc3c(n2)C2(CCCC2)CN3C(=O)NCc2ccc(S(C)(=O)=O)cc2)cn1` [Example 60]: 8.5 µM.
As for `CCS(=O)(=O)c1ccc(CNC(=O)N2CC3(CCCC3)c3nc(-c4ncc(N(C)C)nc4C4CC4)ccc32)cc1` [Example 40], the figure is 1.6 µM; as for `CCS(=O)(=O)c1ccc(CNC(=O)N2CC3(CCCC3)c3nc(-c4cnc(OC)cc4C)ccc32)cc1` [Example 13], 5.2 µM.
With `CCS(=O)(=O)c1ccc(CNC(=O)N2CC(C)(C)c3cc(-c4c(OC)ncnc4C4CC4)ncc32)cc1` [Example 94], inhibition was half-maximal at 3.8 µM (IC50).
Turning to `Cc1ncnc(C2CC2)c1-c1ccc2c(n1)C1(CCCC1)CN2C(=O)NCc1ccc(S(C)(=O)=O)cc1` [Example 80], the IC50 was determined as 0.84 µM.
As for `COc1ccc(-c2ccc3c(n2)C2(CCCC2)CN3C(=O)NCc2ccc(C#N)cc2)c(C(F)(F)F)c1` [Example 46], the figure is 4.1 µM; as for `CCOc1ncnc(C2CC2)c1-c1ccc2c(n1)C1(CCCC1)CN2C(=O)NCc1ccc(S(=O)(=O)CC)cc1` [Example 70], 0.76 µM.
